In US12214036B2, “Combination therapy comprising AXL/MER and PD-1/PD-L1 inhibitors” (Incyte Corporation, priority 2020, dated 2025):

Assays:
CTG-1339 tumors = test: Sarcoma PDX model CTG-1339 (osteosarcoma); type: in vivo, athymic nude mice
Method: Macrophages were allowed to thaw on ice before being lysed with 250 μL/well of 1× Lysis Buffer (Cell Signaling Technology; #9803) and Halt protease and phosphatase inhibitors (ThermoFisher Scientific) for 1 hour at 4° C. The lysed cells were scraped and transferred to an Eppendorf vial on ice. The lysates were centrifuged at 12,700 rpm for 15 minutes at 4° C. PDX tumors were weighed and homogenized with lysis buffer supplemented with protease and phosphatase inhibitor cocktails (Roche, Basel, Switzerland; #11836170001). Tumors were lysed on ice for 30 minutes, followed by centrifugation at 13,000 rpm for 10 minutes. Protein lysates were quantified using BCA Protein Assay Kit (Pierce, ThermoFisher Scientific; #23225). Lysates were transferred to a new tube together with 6× Laemmli SDS sample buffer (Alfa Aesar, Haverhill, Mass.) and the samples were heated for 6 minutes at 95° C. Approximately 50 μg of protein sample was loaded per well using Novex™ 8-16% Tris-Glycine Mini Gels or 4-12% Tris-Glycine Novex WedgeGels (Invitrogen, Carlsbad, Calif.). The proteins were transferred to a nitrocellulose membrane using an iBlot (ThermoFisher Scientific) dry blotting system. The membranes were blocked with 0.5% nonfat dry milk in wash buffer (100 mM NaCl, 10 mM Tris-HCl, pH 8.0, 0.1% Tween 20) for 1 hour at room temperature. The primary antibody used for pMER was from PhosphoSolutions (Aurora, Colo.; #p186-749). The remaining antibodies were obtained from Cell Signaling Technology: MER (#4319), pAXL (#5724), AXL, (#4566), GAS6 (#67202), pAKT (#4060), AKT (#9272), and β-Actin (#4970). Primary antibodies were added at 1:500 and 1:1000, respectively, in 0.5% milk/wash buffer and rocked overnight at 4° C. The membranes were washed three times in wash buffer before incubation with the secondary antibody (anti-rabbit IgG1-HRP; Cell Signaling Technology) at 1:2500 in 0.5% milk/wash buffer for 2 hours at room temperature. The membranes were washed again before the bands were detected with SuperSignal West Dura Extended Duration Chemiluminescent substrate (ThermoFisher Scientific) and were visualized using the Fluorochem M Digital Imager (Protein Simple, San Jose, Calif.).
MBT-2 cells were obtained from the Japanese Collection of Research Bioresources Cell Bank and were maintained in DMEM supplemented with 10% FBS. MC38 cells were obtained from the NCI. 4T1 cells were obtained from ATCC and maintained in RPMI media supplemented with 10% FBS. For MBT-2 experiments, 5×10^5 MBT-2 cells were inoculated subcutaneously into the right hind flank of 6- to 8-week-old C3H mice or athymic nude mice (Charles River Laboratories, Wilmington, Mass.). […] Mice were monitored for tumor growth and overt tolerability over the course of the experiment. […]

4T1 tumor = test: Tumor models in immunodeficient mice; type: in vivo, athymic nude mice; settings: immunodeficient mice bearing the same tumors, FIG. 7C
Text: MBT-2 cells were obtained from the Japanese Collection of Research Bioresources Cell Bank and were maintained in DMEM supplemented with 10% FBS. MC38 cells were obtained from the NCI. 4T1 cells were obtained from ATCC and maintained in RPMI media supplemented with 10% FBS. For MBT-2 experiments, 5×10^5 MBT-2 cells were inoculated subcutaneously into the right hind flank of 6- to 8-week-old C3H mice or athymic nude mice (Charles River Laboratories, Wilmington, Mass.). For MC38 studies, 12-week old female C57BL/6 mice were inoculated with brei of MC38 tumors (in-vivo passage 6) into the right hind flank. For 4T1 studies, 7.5×10^5 4 T1 cells were inoculated subcutaneously into the right hind flank of 6- to 8-week-old female BALB/c mice or athymic nude mice (Charles River Laboratories). Mice were randomized by tumor volume with n=10-12 per group. […] Mice were monitored for tumor growth and overt tolerability over the course of the experiment. […] Tumor volume was calculated using the formula (L×W^2)/2, where L and W refer to the length and width dimensions, respectively. Tumor growth inhibition (TGI) was calculated using the formula (1−(VT/VC))×100, where VT is the tumor volume of the treatment group on the last day of treatment, and VC is the tumor volume of the control group on the last day of treatment. […]

With `CC(C)C(=O)N1CCC(c2cc(-c3ccc(NC(=O)c4cn(C(C)C)c(=O)n(-c5ccccn5)c4=O)cc3)c3c(N)ncnn23)CC1` [Compound 1, N-(4-(4-Amino-7-(1-isobutyrylpiperidin-4-yl)pyrrolo[1,2-f][1,2,4]triazin-5-yl)phenyl)-1-isopropyl-2,4-dioxo-3-(pyridin-2-yl)-1,2,3,4-tetrahydropyrimidine-5-carboxamide] the antitumor response (CTG-1339 tumors; CTG-1339, 10, 30, 100 mg/kg BID oral, FIG. 9C) was “resistant”, the “pAKT in tumors (Western blot)” value (CTG-1339 tumors; CTG-1339 tumors, FIG. 9D) was “only inhibited in CTG-2041” and the “pAXL and pMER in tumors (Western blot)” value (CTG-1339 tumors; CTG-1339 tumors, FIG. 9D) was “inhibited”. The “total MER levels in tumors (Western blot)” value (CTG-1339 tumors; CTG-1339 tumors, FIG. 9D) was “increased” and the “antitumor activity in immunodeficient mice” value (4T1 tumor) was “no activity”.
